Measured values from patent US9340590B2 (priority 2011, dated 2016).
Read-outs that look alike come from different tables or passages of the source. Positions of bridges follow the written chain, without caps; N, C: chain ends. Residues, ends and D or L forms follow the SMILES beside them.

What was measured:
Test in all cases: cell-based
hNav1.7 = hNav1.7 (Homo sapiens, UniProt Q15858); assay type: cell-based; conditions: IonWorks Quattro, use, […], read-out: IWQ Use Nav1.7
hNav1.5 = hNav1.5 (Homo sapiens, UniProt Q14524); conditions: IonWorks Quattro, use, […], read-out: IWQ Use Nav1.5
hNav1.3 = hNav1.3 (Homo sapiens, UniProt Q9NY46); conditions: IonWorks Quattro, use, […], read-out: IWQ Use Nav1.3
Sequence of hNav1.3 (Q9NY46 whole entry, looked up): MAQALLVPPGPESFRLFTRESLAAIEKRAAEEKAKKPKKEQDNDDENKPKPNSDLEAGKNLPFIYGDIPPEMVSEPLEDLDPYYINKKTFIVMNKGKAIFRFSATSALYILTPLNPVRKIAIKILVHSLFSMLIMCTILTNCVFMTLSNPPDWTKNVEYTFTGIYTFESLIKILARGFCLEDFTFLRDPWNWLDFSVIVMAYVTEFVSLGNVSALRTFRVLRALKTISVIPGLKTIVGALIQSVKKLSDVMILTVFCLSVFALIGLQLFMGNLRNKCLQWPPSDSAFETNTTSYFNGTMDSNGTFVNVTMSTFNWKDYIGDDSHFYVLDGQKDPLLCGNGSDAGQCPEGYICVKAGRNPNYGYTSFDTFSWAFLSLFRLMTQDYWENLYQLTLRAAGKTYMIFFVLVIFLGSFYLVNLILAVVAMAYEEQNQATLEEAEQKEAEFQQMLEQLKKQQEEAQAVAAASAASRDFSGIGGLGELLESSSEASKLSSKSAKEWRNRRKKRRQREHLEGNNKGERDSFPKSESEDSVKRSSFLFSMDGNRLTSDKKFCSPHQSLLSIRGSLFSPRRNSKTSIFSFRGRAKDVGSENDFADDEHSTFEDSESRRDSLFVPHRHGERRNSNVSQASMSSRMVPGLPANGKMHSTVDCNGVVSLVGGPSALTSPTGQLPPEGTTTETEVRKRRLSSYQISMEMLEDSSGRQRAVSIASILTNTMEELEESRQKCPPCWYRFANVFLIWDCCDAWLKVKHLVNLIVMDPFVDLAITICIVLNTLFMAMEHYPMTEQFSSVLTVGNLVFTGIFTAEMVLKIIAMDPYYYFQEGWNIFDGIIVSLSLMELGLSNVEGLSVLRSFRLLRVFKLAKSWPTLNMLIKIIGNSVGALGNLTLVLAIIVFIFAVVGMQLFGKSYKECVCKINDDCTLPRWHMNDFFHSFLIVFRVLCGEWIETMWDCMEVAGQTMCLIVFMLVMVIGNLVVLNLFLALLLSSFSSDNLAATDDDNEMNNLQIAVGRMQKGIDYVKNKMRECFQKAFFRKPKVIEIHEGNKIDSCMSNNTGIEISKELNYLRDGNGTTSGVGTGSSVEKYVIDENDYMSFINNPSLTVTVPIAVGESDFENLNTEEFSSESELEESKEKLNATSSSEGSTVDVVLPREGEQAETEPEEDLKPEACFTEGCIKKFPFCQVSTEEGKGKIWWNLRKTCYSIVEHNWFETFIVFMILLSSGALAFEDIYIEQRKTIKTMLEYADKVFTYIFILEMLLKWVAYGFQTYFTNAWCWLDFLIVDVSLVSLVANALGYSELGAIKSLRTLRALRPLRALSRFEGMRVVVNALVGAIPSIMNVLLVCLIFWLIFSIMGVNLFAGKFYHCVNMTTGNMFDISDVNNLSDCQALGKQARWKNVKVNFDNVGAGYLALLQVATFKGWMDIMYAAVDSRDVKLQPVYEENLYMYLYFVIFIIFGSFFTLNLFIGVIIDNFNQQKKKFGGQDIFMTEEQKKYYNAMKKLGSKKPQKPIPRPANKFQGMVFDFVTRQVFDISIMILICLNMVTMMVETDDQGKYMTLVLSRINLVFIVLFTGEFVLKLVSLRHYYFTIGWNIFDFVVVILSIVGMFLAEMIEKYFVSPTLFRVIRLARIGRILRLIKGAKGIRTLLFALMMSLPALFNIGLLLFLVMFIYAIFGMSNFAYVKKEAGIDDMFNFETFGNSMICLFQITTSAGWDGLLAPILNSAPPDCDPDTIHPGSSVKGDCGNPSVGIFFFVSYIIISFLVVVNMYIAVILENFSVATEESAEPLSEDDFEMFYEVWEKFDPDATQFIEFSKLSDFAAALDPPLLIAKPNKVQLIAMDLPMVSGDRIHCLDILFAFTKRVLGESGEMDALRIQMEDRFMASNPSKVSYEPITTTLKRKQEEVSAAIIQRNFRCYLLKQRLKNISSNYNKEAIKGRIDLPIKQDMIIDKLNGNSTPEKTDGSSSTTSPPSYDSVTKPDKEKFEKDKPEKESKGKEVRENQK

Sequence of hNav1.7 (Q15858 whole entry, looked up): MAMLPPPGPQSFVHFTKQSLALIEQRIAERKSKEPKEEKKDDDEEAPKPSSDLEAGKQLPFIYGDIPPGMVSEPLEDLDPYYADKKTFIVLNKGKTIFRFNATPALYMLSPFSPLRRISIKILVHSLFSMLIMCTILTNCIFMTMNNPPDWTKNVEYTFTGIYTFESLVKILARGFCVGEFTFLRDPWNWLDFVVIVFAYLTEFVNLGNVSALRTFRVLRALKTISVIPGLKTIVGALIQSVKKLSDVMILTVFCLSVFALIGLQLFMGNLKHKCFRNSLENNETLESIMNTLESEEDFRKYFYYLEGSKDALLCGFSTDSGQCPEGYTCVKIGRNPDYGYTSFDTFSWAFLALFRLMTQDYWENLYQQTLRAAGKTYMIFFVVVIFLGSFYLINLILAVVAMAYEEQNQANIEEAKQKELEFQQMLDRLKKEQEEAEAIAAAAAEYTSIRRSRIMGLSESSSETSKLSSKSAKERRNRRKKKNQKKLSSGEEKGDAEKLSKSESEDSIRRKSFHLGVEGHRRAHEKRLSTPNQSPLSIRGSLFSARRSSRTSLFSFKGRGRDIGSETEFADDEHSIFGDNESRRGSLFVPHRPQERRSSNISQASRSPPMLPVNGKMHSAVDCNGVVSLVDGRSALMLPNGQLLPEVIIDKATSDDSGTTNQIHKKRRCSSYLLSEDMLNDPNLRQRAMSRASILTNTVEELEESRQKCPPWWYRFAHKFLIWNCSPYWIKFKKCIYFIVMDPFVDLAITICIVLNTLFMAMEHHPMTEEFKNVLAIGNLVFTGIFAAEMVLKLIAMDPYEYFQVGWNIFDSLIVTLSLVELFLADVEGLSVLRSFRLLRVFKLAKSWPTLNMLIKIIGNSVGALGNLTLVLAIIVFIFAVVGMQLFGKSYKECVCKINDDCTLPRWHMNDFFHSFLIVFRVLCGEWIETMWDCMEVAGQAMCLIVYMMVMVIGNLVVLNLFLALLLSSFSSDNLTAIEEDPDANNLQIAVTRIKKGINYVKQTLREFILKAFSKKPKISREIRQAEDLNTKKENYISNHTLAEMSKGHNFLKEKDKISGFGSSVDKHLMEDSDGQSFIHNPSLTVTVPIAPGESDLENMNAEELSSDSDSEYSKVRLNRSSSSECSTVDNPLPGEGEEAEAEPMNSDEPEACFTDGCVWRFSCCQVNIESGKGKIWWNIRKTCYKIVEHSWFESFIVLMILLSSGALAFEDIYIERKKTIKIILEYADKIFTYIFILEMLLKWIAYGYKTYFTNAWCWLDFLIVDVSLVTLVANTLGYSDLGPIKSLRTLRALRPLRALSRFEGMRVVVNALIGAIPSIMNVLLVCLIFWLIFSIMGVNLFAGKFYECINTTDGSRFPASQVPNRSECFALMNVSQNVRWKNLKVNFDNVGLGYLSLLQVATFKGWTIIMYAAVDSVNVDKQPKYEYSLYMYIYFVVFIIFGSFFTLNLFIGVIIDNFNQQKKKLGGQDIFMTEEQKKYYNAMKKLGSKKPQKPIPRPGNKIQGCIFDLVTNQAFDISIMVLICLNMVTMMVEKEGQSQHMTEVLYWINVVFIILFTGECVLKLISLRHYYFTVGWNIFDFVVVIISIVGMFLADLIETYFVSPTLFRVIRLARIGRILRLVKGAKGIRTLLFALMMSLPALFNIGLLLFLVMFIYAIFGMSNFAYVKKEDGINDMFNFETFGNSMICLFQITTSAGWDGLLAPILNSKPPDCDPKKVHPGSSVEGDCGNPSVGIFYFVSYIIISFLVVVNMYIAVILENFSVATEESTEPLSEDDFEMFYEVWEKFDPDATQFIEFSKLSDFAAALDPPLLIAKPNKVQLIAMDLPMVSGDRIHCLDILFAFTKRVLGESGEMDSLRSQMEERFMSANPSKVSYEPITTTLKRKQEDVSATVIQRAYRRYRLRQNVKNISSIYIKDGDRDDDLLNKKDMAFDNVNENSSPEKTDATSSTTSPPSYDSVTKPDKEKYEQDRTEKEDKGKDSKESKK

| Structure (SMILES) | IC50 (hNav1.7; Table 23) | IC50 (hNav1.5; Table 23) | IC50 (hNav1.3; Table 23) | IC50 (hNav1.7; Table 24) | IC50 (hNav1.5; Table 24) | IC50 (hNav1.3; Table 24) |
| --- | --- | --- | --- | --- | --- | --- |
| CC[C@H](C)[C@@H]1NC(=O)[C@@H]2CSSC[C@@H]3NC(=O)[C@H](C(C)C)NC(=O)[C@H](CC(C)C)NC(=O)[C@H](CC(N)=O)NC(=O)[C@@H]4CCCN4C(=O)[C@H](CCCNC(=N)N)NC(=O)[C@H](CSSC[C@H](NC(=O)[C@@H](N)CC(=O)O)C(=O)N[C@@H](CC(C)C)C(=O)NCC(=O)N[C@@H](Cc4ccccc4)C(=O)N[C@@H](CCSC)C(=O)N[C@@H](CCCNC(=N)N)C(=O)N[C@@H](CCCCN)C(=O)N2)NC(=O)[C@H](CSSC[C@@H](C(=O)N[C@@H](CCCCN)C(=O)N[C@@H](Cc2ccc(O)cc2)C(=O)N[C@H](C(=O)N[C@@H](Cc2ccccc2)C(N)=O)C(C)C)NC(=O)[C@H](Cc2c[nH]c4ccccc24)NC(=O)[C@H](CCCCN)NC(=O)[C@H](Cc2ccc(O)cc2)NC(=O)[C@H]([C@@H](C)O)NC(=O)[C@H](CCCNC(=N)N)NC(=O)[C@H](CO)NC3=O)NC(=O)[C@H](CCCCN)NC(=O)[C@H](CC(=O)O)NC(=O)[C@H](CC(N)=O)NC(=O)[C@H](CC(=O)O)NC(=O)[C@@H]2CCCN2C1=O [compound 110] (H-DCLGFMRKCIPDNDKCCRPNLVCSRTYKWCKYVF-NH2; disulfide 2-17, 9-23, 16-30) | 0.19 µM | 6.39 µM | 0.31 µM |  |  |  |
| CC[C@H](C)[C@@H]1NC(=O)[C@@H]2CSSC[C@@H]3NC(=O)[C@H](C(C)C)NC(=O)[C@H](CC(C)C)NC(=O)[C@H](CC(N)=O)NC(=O)[C@@H]4CCCN4C(=O)[C@H](CCCNC(=N)N)NC(=O)[C@H](CSSC[C@H](NC(=O)[C@@H](N)CC(=O)O)C(=O)N[C@@H](CC(C)C)C(=O)NCC(=O)N[C@@H](Cc4ccccc4)C(=O)N[C@@H](CCSC)C(=O)N[C@@H](CCCNC(=N)N)C(=O)N[C@@H](CCCCN)C(=O)N2)NC(=O)[C@H](CSSC[C@@H](C(=O)N[C@@H](CCCCN)C(=O)N[C@@H](Cc2ccc(O)cc2)C(=O)N[C@H](C(=O)N[C@@H](Cc2ccccc2)C(N)=O)C(C)C)NC(=O)[C@H](Cc2c[nH]c4ccccc24)NC(=O)[C@H](CCCCN)NC(=O)[C@H](CC(C)C)NC(=O)[C@H]([C@@H](C)O)NC(=O)[C@H](CCCNC(=N)N)NC(=O)[C@H](CO)NC3=O)NC(=O)[C@H](CCCCN)NC(=O)[C@H](CC(=O)O)NC(=O)[C@H](CC(N)=O)NC(=O)[C@H](CC(=O)O)NC(=O)[C@@H]2CCCN2C1=O [compound 111] (H-DCLGFMRKCIPDNDKCCRPNLVCSRTLKWCKYVF-NH2; disulfide 2-17, 9-23, 16-30) | 1.15 µM | 6.19 µM | 1.01 µM |  |  |  |
| CC[C@H](C)[C@@H]1NC(=O)[C@@H]2CSSC[C@@H]3NC(=O)[C@H](C(C)C)NC(=O)[C@H](CC(C)C)NC(=O)[C@H](CC(N)=O)NC(=O)[C@@H]4CCCN4C(=O)[C@H](CCCNC(=N)N)NC(=O)[C@H](CSSC[C@H](NC(=O)[C@@H](N)CC(=O)O)C(=O)N[C@@H](CC(C)C)C(=O)NCC(=O)N[C@@H](Cc4ccccc4)C(=O)N[C@@H](CCSC)C(=O)N[C@@H](CCCNC(=N)N)C(=O)N[C@@H](CCCCN)C(=O)N2)NC(=O)[C@H](CSSC[C@@H](C(=O)N[C@@H](CCCCN)C(=O)N[C@@H](Cc2ccc(O)cc2)C(=O)N[C@H](C(=O)N[C@@H](Cc2ccccc2)C(N)=O)C(C)C)NC(=O)[C@H](CC(C)C)NC(=O)[C@H](CCCCN)NC(=O)[C@H](Cc2c[nH]cn2)NC(=O)[C@H]([C@@H](C)O)NC(=O)[C@H](CCCNC(=N)N)NC(=O)[C@H](CO)NC3=O)NC(=O)[C@H](CCCCN)NC(=O)[C@H](CC(=O)O)NC(=O)[C@H](CC(N)=O)NC(=O)[C@H](CC(=O)O)NC(=O)[C@@H]2CCCN2C1=O [compound 114] (H-DCLGFMRKCIPDNDKCCRPNLVCSRTHKLCKYVF-NH2; disulfide 2-17, 9-23, 16-30) |  |  |  | 6.99 µM | 7.27 µM | 9.8 µM |
